The values that follow come from patent US8383581B2, “Short-chain peptides as parathyroid hormone (PTH) receptor agonist” (Cadila Healthcare Limited, priority 2009, dated 2013).

Molecules are shown by their SMILES. Where a SMILES comes first, the peptide text is derived from it. [ ]: non-standard residue; d: D form. ξ: configuration not given here. ξαMeBip(2'-Et,4'-OMe) = CCc1cc(OC)ccc1-c1ccc(CC(C)(N)C(=O)O)cc1; ξBip(2'-Et-4'-OMe) = CCc1cc(OC)ccc1-c1ccc(CC(N)C(=O)O)cc1; Arg(NO2) = N=C(NCCC[C@H](N)C(=O)O)N[N+](=O)[O-]; ξαMePhe(2,6-F2) = CC(N)(Cc1c(F)cccc1F)C(=O)O; ξαMePhe(2-F) = CC(N)(Cc1ccccc1F)C(=O)O; hArg = N=C(N)NCCCC[C@H](N)C(=O)O; hCit = NC(=O)NCCCC[C@H](N)C(=O)O; Cit = NC(=O)NCCC[C@H](N)C(=O)O; ξhhPhe = NC(CCCc1ccccc1)C(=O)O; ξαMeNle = CCCCC(C)(N)C(=O)O; Nle = CCCC[C@H](N)C(=O)O; Orn = NCCC[C@H](N)C(=O)O; ξαMeP = CC1(C(=O)O)CCCN1; Ac5c = NC1(C(=O)O)CCCC1; Aib = CC(C)(N)C(=O)O

In the test the test system is ovariectomised (OVX) rats. The experiment in a line: In vivo anti-osteoporosis activity testing in OVX rat model (serum calcium, phosphate, bone parameters). The arrangement: species or system Female Wistar Rats. To be noted: po. The source says: c) In Vivo Anti-Osteoporosis Activity Testing in OVX Rat Model: The ovariectomised (OVX) rats were used to study anti-osteoporosis activity of test compounds (short-chain peptides) in vivo. The OVX rats develop osteopenia due to ovarian hormone deficiency. Osteopenia can be detected as early as 14 days post OVX, increase for the next 100 days and then stabilised (Wronski T. J., et al., Calcif. Tissue Int., 43(3), 1988, 179-183). Detailed Study Protocol to Evaluate the Effects of Anabolic Therapy on Bone Markers and Histomorphometry in OVX Animals: 10 to 11 weeks old Female Wistar Rats (150-200 g) were used. The animals were kept in individually ventilated cages in a room with controlled temperature (23°±3° C.), lighting (12:12 h light-dark cycle) and relative humidity (55±10%). Animals had free access to standard rat chow and water. Protocol for use of animals for conducting this study has been reviewed and approved by Institutional Animal Ethics Committee (IAEC). The animals were marked with picric acid for identification and acclimatized to experimental room conditions for 2 days prior to initiation of the study. For the induction of osteoporosis, rats were bilaterally ovariectomised under anesthesia. For Ovariectomy, Incision was made on dorsa-lateral side near lumbar region of animal. After that, ovary was excised and the veins were tied with ligature before removing ovary to prevent blood loss. Then incision was sutured back with ligature. After Bilateral ovariectomy, animals were allowed to rest for 4 weeks. They were then divided into different groups (n=9) based on their body weight. The groups consisted of a no treatment control, PTH as standard and one or two groups of test compounds (short-chain peptides). The treatment was given for the duration of 6 weeks. At the last day of treatment animals were kept overnight in metabolic cages under fasting for the collection of Urine. Next day, blood was collected after 24 hours of last dosing and animals were sacrificed. Changes in biochemical parameters and bone turnover parameters (Increase in serum Calcium and decrease in Phosphate levels, Acid Phosphatase and TRAP) were evaluated in the urine and serum. After sacrificing, intact femur and tibial bones are removed and cleaned from adherent tissues, muscles and tendons; weighed and collected in formal saline (10% formaldehyde solution). Lumbar vertebra (L5) was excised, carefully cleaned and collected in formal saline. Femur, tibia and Lumbar vertebra-5 (L5) were later processed for histomorphometric evaluation (Zhang L., et al., Tohoku J Exp Med., 1998, 186(2), 131-41; Tanizawa T., et al., Toxicol Lett., 1998, 102, 399-403).

In the case of `CCCCC(C)(NC(=O)[C@H](CC(C)C)NC(=O)[C@H](CCC(N)=O)NC(=O)[C@@H](NC(=O)[C@H](CCC(=O)O)NC(=O)C(C)(C)NC(=O)[C@@H](NC(=O)C(C)(C)N)C(C)C)[C@@H](C)CC)C(=O)N[C@@H](Cc1c[nH]cn1)C(=O)N[C@@H](CCC(N)=O)C(=O)N[C@@H](CCCCNC(=N)N)C(=O)N[C@@H](C)C(=O)N[C@@H](CCCCNC(=N)N)C(=O)NC(C)(Cc1ccc(-c2ccc(OC)cc2CC)cc1)C(=O)NC(CCCc1ccccc1)C(N)=O` (some centres unmarked) [Seq. ID. 911] (H-[Aib]V[Aib]EIQL[ξαMeNle]HQ[hArg]A[hArg][ξαMeBip(2'-Et,4'-OMe)][ξhhPhe]-NH2), where the note is “10 mg/kg”, the “% decrease in serum PO4 Levels (mg/dl) vs control” value (shortened to “% decrease in serum PO4 Levels”) was found to be 97% and the “% increase in serum Ca^2+ Levels (mg/dl) vs control” value (from here on “% increase in serum Ca^2+ Levels”) is 121%.

As to `CCCC[C@H](NC(=O)[C@H](CC(C)C)NC(=O)[C@H](CCC(N)=O)NC(=O)[C@@H](NC(=O)[C@H](CCC(=O)O)NC(=O)C(C)(C)NC(=O)[C@@H](NC(=O)C1(N)CCCC1)C(C)C)[C@@H](C)CC)C(=O)N[C@@H](Cc1c[nH]cn1)C(=O)N[C@@H](CCC(N)=O)C(=O)N[C@@H](CCCCNC(N)=O)C(=O)N[C@@H](C)C(=O)N[C@@H](CCCNC(=N)N)C(=O)NC(Cc1ccc(-c2ccc(OC)cc2CC)cc1)C(=O)NC(CCCc1ccccc1)C(N)=O` (some centres unmarked) [Seq. ID. 779] (H-[Ac5c]V[Aib]EIQL[Nle]HQ[hCit]AR[ξBip(2'-Et-4'-OMe)][ξhhPhe]-NH2), for the setting “1 mg/kg”, the “% decrease in serum PO4 Levels” value amounted to 56% and the “% increase in serum Ca^2+ Levels” value turned out to be 67%.

For the molecule `CCCC[C@H](NC(=O)C(C)(Cc1c(F)cccc1F)NC(=O)[C@H](CCC(N)=O)NC(=O)[C@@H](NC(=O)[C@H](CCC(=O)O)NC(=O)C(C)(C)NC(=O)[C@@H](NC(=O)C1(N)CCCC1)C(C)C)[C@@H](C)CC)C(=O)N[C@@H](Cc1c[nH]cn1)C(=O)N[C@@H](CCC(N)=O)C(=O)N[C@@H](CCCN)C(=O)N[C@@H](C)C(=O)NC(C)(Cc1c(F)cccc1F)C(=O)NC(Cc1ccc(-c2ccc(OC)cc2CC)cc1)C(=O)NC(CCCc1ccccc1)C(N)=O` (some centres unmarked) [Seq. ID. 833] (H-[Ac5c]V[Aib]EIQ[ξαMePhe(2,6-F2)][Nle]HQ[Orn]A[ξαMePhe(2,6-F2)][ξBip(2'-Et-4'-OMe)][ξhhPhe]-NH2), for the setting “0.05 mg/kg”, the “% decrease in serum PO4 Levels” value is 78% and the “% increase in serum Ca^2+ Levels” value worked out at 86%.

In the case of `CCCC[C@H](NC(=O)C(C)(Cc1c(F)cccc1F)NC(=O)[C@H](CCC(N)=O)NC(=O)[C@@H](NC(=O)[C@H](CCC(=O)O)NC(=O)C(C)(C)NC(=O)[C@@H](NC(=O)C(C)(C)N)C(C)C)[C@@H](C)CC)C(=O)N[C@@H](Cc1c[nH]cn1)C(=O)N[C@@H](CCC(N)=O)C(=O)N[C@@H](CCCCNC(=N)N)C(=O)N[C@@H](C)C(=O)NC(C)(C)C(=O)NC(Cc1ccc(-c2ccc(OC)cc2CC)cc1)C(=O)NC(CCCc1ccccc1)C(N)=O` (some centres unmarked) [Seq. ID. 814] (H-[Aib]V[Aib]EIQ[ξαMePhe(2,6-F2)][Nle]HQ[hArg]A[Aib][ξBip(2'-Et-4'-OMe)][ξhhPhe]-NH2), where the note is “0.02 mg/kg”, the “% decrease in serum PO4 Levels” value turned out to be 95% and the “% increase in serum Ca^2+ Levels” value stood at 99%.

`CCCC[C@H](NC(=O)C(C)(Cc1ccccc1F)NC(=O)[C@H](CCC(N)=O)NC(=O)[C@@H](NC(=O)[C@H](CCC(=O)O)NC(=O)C1(NC(=O)[C@@H](NC(=O)C2(N)CCCC2)C(C)C)CCCC1)[C@@H](C)CC)C(=O)N[C@@H](Cc1c[nH]cn1)C(=O)N[C@@H](CCC(N)=O)C(=O)N[C@@H](CCCCNC(=N)N)C(=O)N[C@@H](C)C(=O)N[C@@H](CCCCN)C(=O)NC(C)(Cc1c(F)cccc1F)C(N)=O` (some centres unmarked) [Seq. ID. 99] (H-[Ac5c]V[Ac5c]EIQ[ξαMePhe(2-F)][Nle]HQ[hArg]AK[ξαMePhe(2,6-F2)]-NH2): where the note is “2 mg/kg”, the “% decrease in serum PO4 Levels” value turned out to be 89% and the “% increase in serum Ca^2+ Levels” value is 99%.

For `CCCC[C@H](NC(=O)C(C)(Cc1ccccc1F)NC(=O)[C@H](CCC(N)=O)NC(=O)[C@@H](NC(=O)[C@H](CCC(=O)O)NC(=O)C(C)(C)NC(=O)[C@@H](NC(=O)C1(N)CCCC1)C(C)C)[C@@H](C)CC)C(=O)N[C@@H](Cc1c[nH]cn1)C(=O)N[C@@H](CCC(N)=O)C(=O)N[C@@H](CCCCNC(=N)N)C(=O)NC(C)(C)C(=O)NC(C)(Cc1c(F)cccc1F)C(=O)NC(C)(Cc1ccccc1F)C(N)=O` (some centres unmarked) [Seq. ID. 210] (H-[Ac5c]V[Aib]EIQ[ξαMePhe(2-F)][Nle]HQ[hArg][Aib][ξαMePhe(2,6-F2)][ξαMePhe(2-F)]-NH2), where the note is “1 mg/kg”, the “% decrease in serum PO4 Levels” value is 99% and the “% increase in serum Ca^2+ Levels” value came to 96%.

As to `CCCC[C@H](NC(=O)C(C)(Cc1c(F)cccc1F)NC(=O)[C@H](CCC(N)=O)NC(=O)[C@@H](NC(=O)[C@H](CCC(=O)O)NC(=O)C1(NC(=O)[C@@H](NC(=O)C2(N)CCCC2)C(C)C)CCCC1)[C@@H](C)CC)C(=O)N[C@@H](Cc1c[nH]cn1)C(=O)N[C@@H](CCC(N)=O)C(=O)N[C@@H](CCCCNC(=N)N)C(=O)NC(C)(C)C(=O)N[C@@H](CCCNC(N)=O)C(=O)NC(C)(Cc1c(F)cccc1F)C(N)=O` (some centres unmarked) [Seq. ID. 158] (H-[Ac5c]V[Ac5c]EIQ[ξαMePhe(2,6-F2)][Nle]HQ[hArg][Aib][Cit][ξαMePhe(2,6-F2)]-NH2), under “0.1 mg/kg”, the “% decrease in serum PO4 Levels” value was 82% and the “% increase in serum Ca^2+ Levels” value is listed as 100%.

As to `CCCC[C@H](NC(=O)C(C)(Cc1c(F)cccc1F)NC(=O)[C@H](CCC(N)=O)NC(=O)[C@@H](NC(=O)[C@H](CCC(=O)O)NC(=O)C(C)(C)NC(=O)[C@@H](NC(=O)C(C)(C)N)C(C)C)[C@@H](C)CC)C(=O)N[C@@H](Cc1c[nH]cn1)C(=O)N[C@@H](CCC(N)=O)C(=O)N[C@@H](CCCCNC(=N)N)C(=O)N1CCCC1(C)C(=O)N[C@@H](CCCCN)C(=O)NC(C)(Cc1ccccc1F)C(N)=O` (some centres unmarked) [Seq. ID. 72] (H-[Aib]V[Aib]EIQ[ξαMePhe(2,6-F2)][Nle]HQ[hArg][ξαMeP]K[ξαMePhe(2-F)]-NH2), where the note is “0.01 mg/kg”, the “% decrease in serum PO4 Levels” value is listed as 77% and the “% increase in serum Ca^2+ Levels” value stood at 49%.

As to `CCCC[C@H](NC(=O)C(C)(Cc1ccccc1F)NC(=O)[C@H](CCC(N)=O)NC(=O)[C@@H](NC(=O)[C@H](CCC(=O)O)NC(=O)C(C)(C)NC(=O)[C@@H](NC(=O)C1(N)CCCC1)C(C)C)[C@@H](C)CC)C(=O)N[C@@H](Cc1c[nH]cn1)C(=O)N[C@@H](CCC(N)=O)C(=O)NC(C)(C)C(=O)NC(C)(C)C(=O)NC(C)(C)C(=O)NC(C)(Cc1ccccc1F)C(N)=O` (some centres unmarked) [Seq. ID. 556] (H-[Ac5c]V[Aib]EIQ[ξαMePhe(2-F)][Nle]HQ[Aib][Aib][Aib][ξαMePhe(2-F)]-NH2), for the setting “5 mg/kg”, the “% decrease in serum PO4 Levels” value came out at 84% and the “% increase in serum Ca^2+ Levels” value is given as 77%.

`CCCC[C@H](NC(=O)C(C)(Cc1c(F)cccc1F)NC(=O)[C@H](CCC(N)=O)NC(=O)[C@@H](NC(=O)[C@H](CCC(=O)O)NC(=O)C(C)(C)NC(=O)[C@@H](NC(=O)C1(N)CCCC1)C(C)C)[C@@H](C)CC)C(=O)N[C@@H](Cc1c[nH]cn1)C(=O)N[C@@H](CCC(N)=O)C(=O)N[C@@H](CCCNC(N)=O)C(=O)N[C@@H](C)C(=O)N[C@@H](CCCNC(=N)N[N+](=O)[O-])C(=O)NC(C)(Cc1c(F)cccc1F)C(N)=O` (some centres unmarked) [Seq. ID. 407] (H-[Ac5c]V[Aib]EIQ[ξαMePhe(2,6-F2)][Nle]HQ[Cit]A[Arg(NO2)][ξαMePhe(2,6-F2)]-NH2): under “0.03 mg/kg”, the “% decrease in serum PO4 Levels” value amounted to 81% and the “% increase in serum Ca^2+ Levels” value was 77%.
